The results in this text go back to ChEMBL document CHEMBL4257225, “Compounds and compounds for use in methods for treating diseases or conditions mediated by protein disulfide isomerase” (2016).

The species named for one assay is Mus musculus. Kind of assay: Anti-platelet activity in mouse assessed as inhibition of laser injury-induced thrombus formation by measuring reduction in platelet accumulation in cremaster arterioles by microscopic method. The assay is classed as functional, organism-based.
In assay [1] the target is Protein disulfide-isomerase (Homo sapiens) (UniProt P07237). Kind of assay: Inhibition of PDI in human platelet rich plasma assessed as reduction in SFLLRN peptide-induced platelet aggregation preincubated for 30 mins followed by SFLLRN addition relative to control.
Protein disulfide-isomerase (Homo sapiens), sequence (P07237 18-508 limits assumed): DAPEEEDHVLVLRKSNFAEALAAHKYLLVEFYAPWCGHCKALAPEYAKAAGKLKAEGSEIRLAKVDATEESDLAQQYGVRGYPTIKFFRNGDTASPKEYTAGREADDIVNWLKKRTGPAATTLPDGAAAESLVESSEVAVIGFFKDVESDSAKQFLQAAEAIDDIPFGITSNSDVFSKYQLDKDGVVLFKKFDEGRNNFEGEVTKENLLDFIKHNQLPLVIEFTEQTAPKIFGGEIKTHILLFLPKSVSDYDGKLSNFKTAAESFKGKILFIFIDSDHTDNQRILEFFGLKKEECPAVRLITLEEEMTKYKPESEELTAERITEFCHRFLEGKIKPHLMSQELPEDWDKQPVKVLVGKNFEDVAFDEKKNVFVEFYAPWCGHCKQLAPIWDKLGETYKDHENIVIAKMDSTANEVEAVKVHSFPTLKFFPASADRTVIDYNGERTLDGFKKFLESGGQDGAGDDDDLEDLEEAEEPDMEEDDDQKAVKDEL

Calls of active or inactive are those of the source. The calls are words filed in the database; no cut-off is given here.

A word on the inhibition: it is the drop in the measured response relative to a control, in per cent. `CCOC(=O)C1(CCOc2ccccc2)CCN(Cc2ccc(O)c(Cl)c2)CC1`: the inhibition entry in the assay listed under Mus musculus is “Active”. For the same compound, the inhibition in assay [1] lay in the range of 25 to 50%.

On to `CC(C)(C)OC(=O)C1(CCOc2ccccc2)CCN(Cc2ccc(O)c(Cl)c2)CC1`, for which, in assay [1], the inhibition amounted to 100%.

In the case of `CCOC(=O)C1(CCOc2ccccc2)CCN(C(=O)c2ccc(O)c(Cl)c2)CC1`, the inhibition in assay [1] was determined as 100%.
